{
  "source": "patent US20150025233A1",
  "about": "“USE OF LIPID CONJUGATES IN THE TREATMENT OF DISEASES” (priority 2001, published 2015)",
  "system": "DTH-induced mice",
  "assay": "Dermal DTH response, oxalozone-induced ear swelling in mice (Experiments 5.1-5.4)",
  "format": "in vivo, mouse",
  "details": "for inhibition at 3 µmol/kg: Mus musculus",
  "experimental": "Three modes of administration were performed: 1) The Lipid-conjugate in saline was injected intraperitoneally daily beginning day 0 until day 6 (Table 5.1); 2) The Lipid-conjugate in saline was injected subcutaneously into the ear (adjacent to the challenged area) in two injections, either 3 h before application of oxalozone to the ear or 1 h after application of oxalozone to the ear (Table 5.2); 3) EtOH:H2O 1:1 was applied topically to both ears on top of the challenged area daily beginning day 0 until day 6 (Table 5.3); 4) the Lipid-conjugate was applied topically only to the right ear for 5 times 4-6 hours following the challenge (Table 5.4) using either 20 μL of 0.1% DEXPE in 50% EtOH or 20 μl of Dermovat (steroid ointment). In all experiments control Group A (late sensitized only) was treated by topical application of oxalozone to both sides of the ear 24 hours before measuring its swelling. […] Of particular interest are the results presented in Table 5.4, showing that although the topical administration of the drug was unilateral in both cases, the steroid affected both ears, while the topically applied Lipid-conjugate affected only the area to which it was applied, indicative of a lack of systemic infiltration of the Lipid-conjugate in this context.",
  "key": {"[1]": {"details": "Intraperitoneal, fully sensitized, 5 mg (15 μmol/kg)"}, "[2]": {"details": "Subcutaneous, fully sensitized, 1 mg (3 μmol/kg)"}, "[3]": {"details": "Unilateral topical, on right ear only, 3 μmol/kg, dermovat"}},
  "note": "Like-named read-outs stand apart in the source and are kept apart here.",
  "data": [
    {"smiles": "C[C@H]1C[C@H]2[C@@H]3CCC4=CC(=O)C=C[C@]4(C)[C@@]3(F)[C@@H](O)C[C@]2(C)[C@@]1(O)C(=O)CO", "note": "[betamethasone]", "values": [
      {"measurement": "Percent inhibition of ear swelling", "setting": "[1]", "result": 74, "unit": "%"},
      {"measurement": "Swelling after sensitization - Swelling of normal ear, Mean ± S.D. (n = 12)", "setting": "[1]", "result": "6.5 ± 1.35 0.1 mm"},
      {"measurement": "inhibition at 3 µmol/kg", "setting": "Topical, fully sensitized, 3 μmol/kg, read-out: Percent inhibition of ear swelling", "result": 60, "unit": "%"},
      {"measurement": "inhibition at 3 µmol/kg", "setting": "Unilateral topical, on right ear only, 3 μmol/kg, dermovat, read-out: Percent inhibition, Left ear", "result": 63, "unit": "%"},
      {"measurement": "inhibition at 3 µmol/kg", "setting": "Unilateral topical, on right ear only, 3 μmol/kg, dermovat, read-out: Percent inhibition, Right ear", "result": 63, "unit": "%"},
      {"measurement": "Percent inhibition of ear swelling", "setting": "[2]", "result": 72, "unit": "%"},
      {"measurement": "Swelling after sensitization - Swelling of normal ear, Mean ± S.D. (n = 12)", "setting": "[2]", "result": "8.1 ± 1.19 0.1 mm"},
      {"measurement": "Swelling after sensitization - Swelling of normal ear, Mean ± S.D. (n = 12)", "setting": "Topical, fully sensitized, 3 μmol/kg", "result": "10.6 ± 0.84 0.1 mm"},
      {"measurement": "Swelling after sensitization - Swelling of normal ear, Left ear, Mean ± S.D. (n = 10)", "setting": "[3]", "result": "7.0 ± 1.0 0.1 mm"},
      {"measurement": "Swelling after sensitization - Swelling of normal ear, Right ear, Mean ± S.D. (n = 10)", "setting": "[3]", "result": "7.0 ± 1.0 0.1 mm"}
    ]}
  ]
}
